Test results taken from ChEMBL document CHEMBL3868596, “A new target for Parkinson's disease: Small molecule SERCA activator CDN1163 ameliorates dyskinesia in 6-OHDA-lesioned rats” (Bioorg Med Chem, 2017).
The source made the active and inactive calls. The calls are words filed in the database; no cut-off is given here.

How the values were obtained:
Rattus norvegicus [1] = assay: (§1) Antiakinetic activity in 6-OHDA induced unilaterally lesioned Wistar rat Parkinson's disease model assessed as reduction in 6-OHDA-induced increase in initiation time to move towards plane surface administered ip qd for 5 days prior to 6-OHDA-challenge measured 1 hr post compound treatment on day 11 relative to non-lesioned control; assay type: functional, organism-based
Rattus norvegicus [2] = assay: Antiakinetic activity in 6-OHDA induced unilaterally lesioned Wistar rat Parkinson's disease model assessed as increase in double contacts at 10 mg/kg, ip qd administered 5 days prior to 6-OHDA-challenge measured on day 11 post 1.5 hr of last dosage by cylinder test; assay type: functional, organism-based
Rattus norvegicus [3] = assay: (§2) Antiakinetic activity in 6-OHDA induced unilaterally lesioned Wistar rat Parkinson's disease model assessed as restoration of 6-OHDA-induced decrease in number of adjusting steps in contralateral forelimb administered ip qd for 5 days prior to 6-OHDA-challenge measured on day 11 post 1 hr of last dosage; assay type: functional, organism-based
HeLa = assay: Activation of SERCA in human HeLa cells expressing YFP/CFP fused cameleon assessed as reduction in thapsigargin-induced decrease in endoplasmic reticulum calcium level by inverted wide-field fluorescence microscopy; assay type: cell-based
[4] = AUC in mouse at 2 mg/kg, po or 1 mg/kg, iv; assay type: ADME, organism-based; details: in vivo
[5] = Permeability of the compound by PAMPA; assay type: ADME
[6] = Ratio of drug level in mouse brain to plasma at 10 mg/kg, ip measured after 1 hr; assay type: ADME, organism-based; details: read-out: BPR
[7] = Metabolic stability in human liver microsomes measured after 1 hr; assay type: ADME; details: read-out: Stability
Rattus norvegicus [8] = assay: Antiakinetic activity in 6-OHDA induced unilaterally lesioned Wistar rat Parkinson's disease model assessed as assessed as increase in double contacts compound administered ip, qd for 5 days prior to 6-OHDA-challenge measured on day 11 post 1.5 hr of last dosage by cylinder test; assay type: functional
[9] = Metabolic stability in mouse plasma measured after 1 hr; assay type: ADME, cell-free; details: read-out: Stability
[10] = Tmax in mouse at 2 mg/kg, po or 1 mg/kg, iv; assay type: ADME, organism-based; details: in vivo
Homo sapiens = species on record: Homo sapiens; assay: Activation of SERCA (unknown origin)
Rattus norvegicus [11] = species on record: Rattus norvegicus; assay: Cytoprotection against thapsigargin-induced ER-stress in rat CSM14.1 cells assessed as increase in cell viability preincubated for 2 hrs followed by thapsigargin addition measured after 20 hrs by ATPlite assay relative to thapsigargin treated control; assay type: functional, cell-based
[12] = Cmax in mouse at 2 mg/kg, po or 1 mg/kg, iv; assay type: ADME, organism-based; details: in vivo
Rattus norvegicus [13] = assay: as §1, with “at 10 mg/kg,” for “administered”, “administered” for “for”; assay type: functional, organism-based
Rattus norvegicus [14] = assay: as §2, with “forelimb at 10 mg/kg,” for “forelimb administered”, “qd administered” for “qd for”; assay type: functional, organism-based
[15] = Cytoprotection against thapsigargin-induced ER-stress in rat CSM14.1 cells assessed as cell viability at 15 ug/ml preincubated for 2 hrs followed by thapsigargin addition measured after 20 hrs by ATPlite assay relative to thapsigargin treated control; assay type: functional; details: read-out: Activity

Compound | Activity (Rattus norvegicus [1]) | Activity (Rattus norvegicus [2]) | Activity (Rattus norvegicus [3]) | Activity (HeLa) | AUC [4] | permeability [5] | Kp at 1 h [6] | remaining at 1 h [7] | Activity (Rattus norvegicus [8]) | remaining at 1 h [9] | Tmax [10] | Activity (Homo sapiens) | Activity (Rattus norvegicus [11]) | Cmax [12] | Activity (Rattus norvegicus [13]) | Activity (Rattus norvegicus [14]) | viability at 15 µg/mL [15]
N[C@@H](Cc1ccc(O)c(O)c1)C(=O)O | Active | Active | Active |  |  |  |  |  |  |  |  |  |  |  |  |  | 
Cc1ccc2cccc(NC(=O)c3ccc(OC(C)C)cc3)c2n1 |  |  |  | Active | 0.41 µM·h | Permeable | 2.83 to 3 | 58% | Active | 94% | 40.2 min | Active | Dose-dependent effect | 260 nM | Active | Active | 100%
